Test results from patent EP0641363B1, “DETERGENT COMPOSITIONS CONTAINING COPOLYMERS” (UNILEVER PLC, priority 1992, dated 1993).

Experiment: Calcium binding: titration with calcium chloride solution using a calcium-ion-selective electrode; binding constant calculated by the method of Tanford
Experimental: The calcium binding properties of the polymers were measured by titration of the samples with a calcium chloride solution using a calcium-ion-selective electrode of the type Radiometer (Trade Mark) F2112Ca. The calcium binding constant pKCa2+ was calculated by the method of C Tanford in Chapter 8, Multiple Equilibria, Physical Chemistry of Macromolecules, John Wiley, New York, 1961.
Values of pKCa2+ of 4.0 or above represent materials likely to be useful as detergency builders, either alone or in conjunction with other builder materials. The value for sodium tripolyphosphate is 6.0, and any figure higher than this indicates excellent building.

pKCa2+: 6.0
SMILES: O=P(O)(O)OP(=O)(O)OP(=O)(O)O [sodium tripolyphosphate]
